Assays:
[1] = molecular target: T1, human 5-HT7 receptor (Homo sapiens, UniProt P34969); experiment: 5-HT7 receptor binding test; details: human 5-HT7 receptor expressing CHO cell membrane, [3H] 5-HT
T1 construct: expressed in transfected cells; host or cells: CHO cells (membrane preparation)
Experimental: Test Method (2) 5-HT7 Receptor Binding Test (i) Preparation of Membrane Sample
Cultured human 5-HT7 receptor expressing CHO cells were washed with PBS(−). The cells were peeled off with a scraper in the presence of PBS(−), and the cells were recovered by centrifugation (1,000 rpm, 10 minutes, 4° C.). In the presence of 5 mM Tris-HCl (pH 7.4) buffer, homogenized using a homogenizer (registered trademark: Polytron (PTA 10-TS)), and centrifugation-treated (40,000×g, 10 minutes, 4° C.). In the presence of 50 mM Tris-HCl (pH 7.4) buffer, suspended using Glass-Teflon (registered trademark) homogenizer. By carrying out centrifugation treatment (40,000×g, 10 minutes, 4° C.), suspended in 50 mM Tris-HCl (pH 7.4) and stored at −80° C.
(§1) (ii) Receptor Binding Test
A total volume of 500 μl containing 50 mM Tris-HCl, a 4 mM CaCl2 (pH 7.4) buffer, a human 5-HT7 receptor expressing CHO cell membrane preparation and a radio-ligand [^3H] 5-HT (3.40 TBq/mmol) was incubated at 25° C. for 1 hour. The compound was dissolved in 100% DMSO and diluted to respective concentrations. Binding quantity in the presence of 10 μM metergoline was regarded as the nonspecific binding, and a result of subtracting the nonspecific binding quantity from the total binding quantity was regarded as the specific binding quantity. After adding 4 ml of 50 mM Tris-HCl buffer (pH 7.4) and filtering under a reduced pressure using a GF/B glass filter, the filter was washed (4 ml×3) with the same buffer. By soaking the glass filter in 5 ml of a liquid scintillator (trade name: Aquasol-2), the radioactivity quantity was measured using a liquid scintillation counter.

[2] = molecular target: T2, human 5-HT2B receptor (Homo sapiens, UniProt P41595); experiment: 5-HT2B receptor binding test; details: human 5-HT2B receptor expressing HEK293-EBNA cell membrane, [3H] Mesulergine
T2 construct: expressed in transfected cells; host or cells: HEK293-EBNA cells (membrane preparation)
Experimental: Test Method (1) 5-HT2B Receptor Binding Test
(i) Preparation of Membrane Sample
Cultured human 5-HT2B receptor expressing HEK293-EBNA cells were washed with a phosphate buffer (PBS)(−). The cells were peeled off with a scraper in the presence of PBS(−), and the cells were recovered by centrifugation (1,000 rpm, 10 minutes, 4° C.). In the presence of 5 mM tris-hydrochloric acid (Tris-HCl) (pH 7.4) buffer, homogenized using a homogenizer (registered trademark: Polytron (PTA 10-TS)), and centrifugation-treated (40,000×g, 10 minutes, 4° C.). In the presence of 50 mM Tris-HCl (pH 7.4) buffer, suspended using Glass-Teflon (registered trademark) homogenizer. By carrying out centrifugation treatment (40,000×g, 10 minutes, 4° C.), suspended in 50 mM Tris-HCl (pH 7.4) and stored at −80° C.
as §1
A total volume of 500 μl containing 50 mM Tris-HCl, a 4 mM CaCl2 (pH 7.4) buffer, a human 5-HT2B receptor expressing HEK293-EBNA cell membrane preparation and a radio-ligand [^3H] Mesulergine (3.1 TBq/mmol) was incubated at 25° C. for 1 hour. The compound was dissolved in 100% dimethyl sulfoxide (DMSO) and diluted to respective concentrations. Binding quantity in the presence of 1 μM ritanserin was regarded as the nonspecific binding, and a result of subtracting the nonspecific binding quantity from the total binding quantity was regarded as the specific binding quantity. After adding 4 ml of 50 mM Tris-HCl buffer (pH 7.4) and filtering under a reduced pressure using a GF/B glass filter, the filter was washed (4 ml×3) with the same buffer. By soaking the glass filter in 5 ml of a liquid scintillator (trade name: Aquasol-2), the radioactivity quantity was measured using a liquid scintillation counter. […] Ex represents example compound number which is described later.

[3] = system: male Wistar rats; experiment: Defecation suppressing effect at the time of restraint stress loading (rat restraint stress defecation model); assay type: in vivo; details: for number of faces excreted, difference in comparison with the non-administration group: rat restraint stress, 1, 3 or 10 mg/kg administration group, N=10; for defecation-suppressing action / suppressing action on defecation: rat restraint stress, faces excreted during 1 hour after stress loading; for defecation-suppressing action: even at a dose of 10 mg/kg p.o.; for suppressing action on defecation: starting from a dose of 1 mg/kg (p.o.)
Experimental: Test method (4) Defecation Suppressing Effect at the Time of Restraint Stress Loading
The IBS-treating effect of the compound (I) of the present invention was evaluated using a test method in which the amount of excreted faces is measured by loading a restraint stress on rats (see “The Journal of Pharmacology Experimental Therapeutics”, (USA), 1992, vol. 261, p. 297-303).
The agent to be tested was administered to male Wistar rats (body weight 250 to 320 g, 10 animals for each group), and a restraint stress was loaded 30 minutes thereafter. A restraint cage (trade name: KN-468, 265 mm in width×95 mm in length×200 mm in height, Natsume Seisakusho, Tokyo) was used for the restraint stress loading, and the number of faces excreted during 1 hour after the stress loading was counted.

[4] = system: 5-HT2B receptor; details: versus 5-HT1A, 5-HT1B, 5-HT2A, 5-HT2C, 5-HT3, 5-HT6, 5-HT7, α1, M1, D2 and the like; cited from earlier work

T2 sequence (P41595 whole entry): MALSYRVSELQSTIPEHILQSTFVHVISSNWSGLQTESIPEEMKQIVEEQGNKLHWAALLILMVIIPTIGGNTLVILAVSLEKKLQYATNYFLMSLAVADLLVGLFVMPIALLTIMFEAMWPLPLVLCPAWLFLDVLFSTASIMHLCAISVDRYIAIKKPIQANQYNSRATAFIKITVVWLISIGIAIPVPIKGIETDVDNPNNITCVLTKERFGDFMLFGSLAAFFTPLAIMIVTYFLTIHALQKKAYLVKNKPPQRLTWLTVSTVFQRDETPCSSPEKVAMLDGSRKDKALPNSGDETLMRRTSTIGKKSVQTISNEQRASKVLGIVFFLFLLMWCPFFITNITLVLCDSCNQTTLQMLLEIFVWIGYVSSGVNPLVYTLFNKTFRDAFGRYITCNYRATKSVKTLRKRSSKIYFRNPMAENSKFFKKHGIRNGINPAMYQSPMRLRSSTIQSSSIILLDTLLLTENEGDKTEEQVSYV
T1 sequence (P34969 whole entry): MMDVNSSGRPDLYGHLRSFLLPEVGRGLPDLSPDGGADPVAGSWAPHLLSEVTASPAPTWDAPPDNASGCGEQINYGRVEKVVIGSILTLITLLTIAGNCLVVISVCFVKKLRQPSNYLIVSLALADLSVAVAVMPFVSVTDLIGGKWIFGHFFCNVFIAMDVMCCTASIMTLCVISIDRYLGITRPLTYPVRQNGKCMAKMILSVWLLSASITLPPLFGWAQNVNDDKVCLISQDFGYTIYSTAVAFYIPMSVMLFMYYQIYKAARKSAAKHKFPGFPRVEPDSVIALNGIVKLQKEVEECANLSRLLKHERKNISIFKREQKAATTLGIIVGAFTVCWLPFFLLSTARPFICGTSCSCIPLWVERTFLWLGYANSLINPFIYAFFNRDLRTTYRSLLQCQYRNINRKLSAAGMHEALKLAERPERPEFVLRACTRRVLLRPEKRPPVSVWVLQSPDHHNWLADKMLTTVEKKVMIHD

Compound	Ki [1] [nM]	Ki [2] [nM]	number of faces excreted, difference in comparison with the non-administration group [3]	defecation-suppressing action [3]	5-HT2B receptor-selective by a factor [4] [times]	suppressing action on defecation [3]
Cc1c(C(=O)NC[C@H]2CCCN2C)cc(C(C)(C)C)n1CCc1ccc(F)cc1 [Example 163]	4.1	7.1				
CC1CCN(CC[C@H]2CCCN2S(=O)(=O)c2cccc(O)c2)CC1 [SB-269970, (R)-3-(2-(2-(4-methylpiperidin-1-yl)ethyl)pyrrolidine-1-sulfonyl)phenol]			Significant difference was not found	did not show the defecation-suppressing action		
CC(C)c1cc(-c2ccc(F)c3ccccc23)nc(N)n1 [RS-127445, 2-amino-4-(4-fluoronaphth-1-yl)-6-isopropylpyrimidine]			Significant difference was not found	did not show defecation-suppressing action	≥ 1000	
Cc1c(C(=O)NCCN(C)C)cc(C(C)(C)C)n1OCc1ccc(F)cc1 [Example 211]	3.1	7.5				
Cc1c(C(=O)N=C(N)N)cc(-c2ccccc2)n1Cc1ccco1 [Example 98]	28	9.6				
Cc1c(C(=O)NCCN(C)C)cc(-c2ccsc2)n1CCc1ccc(F)cc1 [Example 187]	11	0.68				
Cc1c(C(=O)NC[C@@H]2CCCN2C)cc(C(C)(C)C)n1CCc1ccc(F)cc1 [Example 161]	5.3	8.4				significant suppressing action
Cc1c(C(=O)N[C@@H]2CCN(C)C2)cc(C(C)(C)C)n1CCc1ccc(F)cc1 [Example 154]	14	2.1				significant suppressing action
Cc1c(C(=O)N[C@H]2CCN(C)C2)cc(C(C)(C)C)n1CCc1ccc(F)cc1 [Example 153]	6.5	12				significant suppressing action
Cc1c(C(=O)NCCN(C)C)cc(Cc2ccc(F)cc2)n1CCc1ccc(F)cc1 [Example 196]	1.8	7.2				
Cc1c(C(=O)NCCN(C)C)cc(C(C)(C)C)n1CCc1ccc(F)cc1 [Example 2, 5-tert-butyl-N-[2-(dimethylamino)ethyl]-1-[2-(4-fluorophenyl)ethyl]-2-methyl-1H-pyrrole-3-carboxamide]	1.1	7.7				
Cc1c(C(=O)N[C@H]2CCN(C)C2)c(C)n(CCc2ccc(F)cc2)c1C(C)(C)C [Example 218]	4.3	9.2				
Cc1c(C(=O)N=C(N)N)c(C)n(CCc2ccc(F)cc2)c1C(C)(C)C [Example 142]	1.5	3.7				
Cc1c(C(=O)N[C@@H]2CCN(C)C2)c(C)n(CCc2ccc(F)cc2)c1C(C)(C)C [Example 217]	8.2	2.3				
Cc1c(C(=O)N=C(N)N)cc(C2CCCC2)n1CCc1ccc(F)cc1 [Example 52]	1.3	0.48				
